US12522607B2, “Substituted pyrazolo[3,4-d]pyrimidines as wee-1 inhibitors” (WIGEN BIOMEDICINE TECHNOLOGY (SHANGHAI) CO., LTD., priority 2020, dated 2026)

How the values were obtained:
[1] = tested on: HT29 cells; experiment: Antiproliferative activity against HT29 cells (Cell Titer-Lumi, ATP content); type: cell-based; conditions: Homo sapiens, HT-29, 72 after compound addition, read-out: HT-29 cells Anti-proliferative activity (IC50 for the inhibition against HT-29 cell growth)
Protocol: Example 343. Assay for Antiproliferative Activity Against HT29 Cells
3000 HT29 cells were seed in a 384-well plate (Fisher 142762). After the cells adhered to the wall overnight, the compounds diluted in a gradient were added. 72 later, Cell Titer-Lumi (Beyotime C0068XL) was added to determine the content of ATP in the cells. The growth of the cells was evaluated, and the IC50 for the inhibition of the compounds against cell growth was calculated.

[2] = target: T1, Wee-1 kinase (Homo sapiens, UniProt P30291); experiment: Inhibitory activity against Wee-1 kinase (Lanthra Screen Wee-1 kinase kit, Tracer 178); type: binding; conditions: Wee-1 kinase 5 nM, Tracer 178 50 nM, 1 h room temperature
T1 construct: purchased Invitrogen
T1 sequence (P30291 whole entry): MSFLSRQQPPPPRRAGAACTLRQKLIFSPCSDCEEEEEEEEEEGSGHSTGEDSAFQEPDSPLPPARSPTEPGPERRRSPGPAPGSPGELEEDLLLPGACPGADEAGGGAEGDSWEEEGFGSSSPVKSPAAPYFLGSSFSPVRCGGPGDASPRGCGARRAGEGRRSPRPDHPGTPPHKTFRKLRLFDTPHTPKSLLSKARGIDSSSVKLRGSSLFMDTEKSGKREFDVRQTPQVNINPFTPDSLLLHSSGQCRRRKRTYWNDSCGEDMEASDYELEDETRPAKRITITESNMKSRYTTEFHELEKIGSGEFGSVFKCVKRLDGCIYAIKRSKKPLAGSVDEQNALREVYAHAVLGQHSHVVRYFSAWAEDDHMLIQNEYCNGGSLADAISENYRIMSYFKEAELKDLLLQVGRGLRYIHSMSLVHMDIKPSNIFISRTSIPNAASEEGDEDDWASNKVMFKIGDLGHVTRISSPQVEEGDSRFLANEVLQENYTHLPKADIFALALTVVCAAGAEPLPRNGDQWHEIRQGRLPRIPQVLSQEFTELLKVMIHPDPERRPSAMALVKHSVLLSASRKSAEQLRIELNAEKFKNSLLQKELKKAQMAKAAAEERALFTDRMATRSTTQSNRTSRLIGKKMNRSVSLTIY
Protocol: Example 342. Assay for Inhibitory Activity of Compounds Against Wee-1 Kinase
The inhibitory activity of compounds against Wee-1 kinase was determined by using the Lanthra Screen Wee-1 kinase kit (Invitrogen). 5 μL of the compound diluted in a gradient with DMSO, 5 μL. of Wee-1 kinase (at a final concentration of 5 nM), 5 μL of an Eu-Anti-GST antibody (at a final concentration of 2 nM) mixture and 5 μL of kinase Tracer 178 (at a final concentration of 50 nM) were mixed well. The plate was read after incubation at room temperature for one hour. For comparison with the DMSO solvent control group, IC50 for the inhibition activity of the compounds against Wee-1 kinase was calculated.

Compound: Cc1cc(Nc2ncc3c(=O)n(C(C)C)n(-c4ccc(=O)n(C(C)(C)C)n4)c3n2)ccc1C1CCN(C)CC1 [Compound 290]
- IC50 [1]: ≤ 1 µM
- IC50 [2]: ≤ 0.03 µM

Compound: C=CCn1c(=O)c2cnc(Nc3ccc(N4C[C@@H](C)N(C)[C@@H](C)C4)cc3)nc2n1-c1ccc(=O)n(C(C)C)n1 [Compound 117]
- IC50 [1]: ≤ 1 µM
- IC50 [2]: ≤ 0.03 µM

Compound: C=CCn1c(=O)c2cnc(Nc3ccc4c(ccn4C4CCN(C(C)C)CC4)c3)nc2n1-c1ccc(=O)n(C(C)C)n1 [Compound 271]
- IC50 [1]: ≤ 1 µM
- IC50 [2]: ≤ 0.03 µM

Compound: C=CCn1c(=O)c2cnc(Nc3ccc(N4CCN(C)[C@H](C)C4)cc3)nc2n1-c1ccc(=O)n(C(C)C)n1 [Compound 132]
- IC50 [1]: ≤ 1 µM
- IC50 [2]: ≤ 0.03 µM

Compound: Cc1cc(Nc2ncc3c(=O)n(C4CC4)n(-c4ccc(=O)n(C(C)C)n4)c3n2)ccc1C1CCN(C)CC1 [Compound 273]
- IC50 [1]: ≤ 1 µM
- IC50 [2]: ≤ 0.03 µM

Compound: C=CCn1c(=O)c2cnc(Nc3ccc4cc(N5CCN(C)CC5)ccc4c3)nc2n1-c1ccc(=O)n(C(C)C)n1 [Compound 218]
- IC50 [1]: ≤ 1 µM
- IC50 [2]: ≤ 0.03 µM

Compound: Cc1cc(Nc2ncc3c(=O)n(C(C)C)n(-c4cc(F)c(=O)n(C(C)C)c4)c3n2)ccc1N1CCN(C)CC1 [Compound 320]
- IC50 [1]: ≤ 1 µM
- IC50 [2]: ≤ 0.03 µM

Compound: Cc1cc(Nc2ncc3c(=O)n(C4CC4)n(-c4cc(F)c(=O)n(C(C)C)c4)c3n2)ccc1N1CCN(C)CC1 [Compound 324]
- IC50 [1]: ≤ 1 µM
- IC50 [2]: ≤ 0.03 µM

Compound: C=CCn1c(=O)c2cnc(Nc3ccc(N4C[C@H](C)NC[C@H]4C)c(C)c3)nc2n1-c1ccc(=O)n(C(C)C)n1 [Compound 126]
- IC50 [1]: ≤ 1 µM
- IC50 [2]: ≤ 0.03 µM

Compound: C=CCn1c(=O)c2cnc(Nc3ccc(N4CC[C@H](N(C)C)C4)c(C)c3)nc2n1-c1ccc(=O)n(C(C)C)n1 [Compound 93]
- IC50 [1]: ≤ 1 µM
- IC50 [2]: ≤ 0.03 µM

Compound: C=CCn1c(=O)c2cnc(Nc3ccc(N4CCN(C5CCC5)CC4)cc3)nc2n1-c1ccc(=O)n(C(C)C)n1 [Compound 34]
- IC50 [1]: ≤ 1 µM
- IC50 [2]: ≤ 0.03 µM

Compound: C=CCn1c(=O)c2cnc(Nc3ccc(N4CCC(N(C)C)CC4)c(C)c3)nc2n1-c1ccc(=O)n(C(C)C)n1 [Compound 99]
- IC50 [1]: ≤ 1 µM
- IC50 [2]: ≤ 0.03 µM

Compound: C=CCn1c(=O)c2cnc(Nc3ccc(C4(C)CCN(C)CC4)cc3)nc2n1-c1ccc(=O)n(C(C)C)n1 [Compound 201]
- IC50 [1]: ≤ 1 µM
- IC50 [2]: ≤ 0.03 µM

Compound: C=CCn1c(=O)c2cnc(Nc3ccc(N4CCN(C)[C@@H](C)C4)cc3)nc2n1-c1ccc(=O)n(C(C)C)n1 [Compound 129]
- IC50 [1]: ≤ 1 µM
- IC50 [2]: ≤ 0.03 µM

Compound: C=CCn1c(=O)c2cnc(Nc3ccc(N4CCN(C)CC4)c(C)c3)nc2n1-c1ccc(=O)n(C(C)C)n1 [Compound 42]
- IC50 [1]: ≤ 1 µM
- IC50 [2]: ≤ 0.03 µM

Compound: C=CCn1c(=O)c2cnc(Nc3ccc(N4CCN(C)CC4)c(CO)c3)nc2n1-c1ccc(=O)n(C(C)C)n1 [Compound 52]
- IC50 [1]: 1 to 3 µM
- IC50 [2]: ≤ 0.03 µM

Compound: C=CCn1c(=O)c2cnc(Nc3ccc(N4CCC5(CCNCC5)CC4)cc3)nc2n1-c1ccc(=O)n(C(C)C)n1 [Compound 181]
- IC50 [1]: 1 to 3 µM
- IC50 [2]: ≤ 0.03 µM

Compound: C=CCn1c(=O)c2cnc(Nc3ccc(N4CCC(N5CCCC5)CC4)c(C)c3)nc2n1-c1ccc(=O)n(C(C)C)n1 [Compound 90]
- IC50 [1]: ≤ 1 µM
- IC50 [2]: ≤ 0.03 µM

Compound: C=CCn1c(=O)c2cnc(Nc3ccc(N4CCC(N5CCC5)CC4)c(OC)c3)nc2n1-c1ccc(=O)n(C(C)C)n1 [Compound 88]
- IC50 [1]: ≤ 1 µM
- IC50 [2]: ≤ 0.03 µM

Compound: C=CCn1c(=O)c2cnc(Nc3ccc(N4CCC(N5CCCC5)CC4)cc3)nc2n1-c1ccc(=O)n(C(C)C)n1 [Compound 89]
- IC50 [1]: ≤ 1 µM
- IC50 [2]: ≤ 0.03 µM

Compound: C=CCn1c(=O)c2cnc(Nc3ccc(N4CCN(C5CCN(C)CC5)CC4)cc3)nc2n1-c1ccc(=O)n(C(C)C)n1 [Compound 36]
- IC50 [1]: ≤ 1 µM
- IC50 [2]: ≤ 0.03 µM

Compound: C=CCn1c(=O)c2cnc(Nc3ccc(N4CCC5(CN(C)C5)C4)c(OC)c3)nc2n1-c1ccc(=O)n(C(C)C)n1 [Compound 174]
- IC50 [1]: ≤ 1 µM
- IC50 [2]: ≤ 0.03 µM

Compound: C=CCn1c(=O)c2cnc(Nc3ccc(N4CCN(C)CC4)cc3)nc2n1-c1ccc(=O)n(C2CC(F)(F)C2)n1 [Compound 15]
- IC50 [1]: 1 to 3 µM
- IC50 [2]: 0.03 to 0.1 µM

Compound: C=CCn1c(=O)c2cnc(Nc3cc(N4CCN(C)CC4)c4ccn(C5CC5)c4c3)nc2n1-c1ccc(=O)n(C(C)C)n1 [Compound 258]
- IC50 [1]: ≤ 1 µM
- IC50 [2]: ≤ 0.03 µM

Compound: C=CCn1c(=O)c2cnc(Nc3cccc(N4CCNCC4)c3)nc2n1-c1ccc(=O)n(C(C)C)n1 [Compound 67]
- IC50 [1]: ≤ 1 µM
- IC50 [2]: ≤ 0.03 µM

Compound: C=CCn1c(=O)c2cnc(Nc3ccc(N4C[C@@H](C)N(C)[C@@H](C)C4)c(C(F)(F)F)c3)nc2n1-c1ccc(=O)n(C(C)C)n1 [Compound 123]
- IC50 [1]: ≤ 1 µM
- IC50 [2]: ≤ 0.03 µM

Compound: CC(C)n1cc(-n2c3nc(Nc4ccc5c(c4)CN(C)CC54CC4)ncc3c(=O)n2C(C)C)cc(F)c1=O [Compound 322]
- IC50 [1]: ≤ 1 µM
- IC50 [2]: ≤ 0.03 µM

Compound: CCn1c(=O)c2cnc(Nc3ccc(N4CCN(C)CC4)cc3)nc2n1-c1ccc(=O)n(C(C)C)c1 [Compound 299]
- IC50 [1]: ≤ 1 µM
- IC50 [2]: ≤ 0.03 µM

Compound: C=CCn1c(=O)c2cnc(Nc3ccc(N4CCN(C)CC4)cc3)nc2n1-c1ccc(=O)n(C(C)(C)C(F)(F)F)n1 [Compound 10]
- IC50 [1]: ≤ 1 µM
- IC50 [2]: ≤ 0.03 µM

Compound: C=CCn1c(=O)c2cnc(Nc3cc(Cl)cc(N4CCNCC4)c3)nc2n1-c1ccc(=O)n(C(C)C)n1 [Compound 73]
- IC50 [1]: ≤ 1 µM
- IC50 [2]: ≤ 0.03 µM

Compound: C=CCn1c(=O)c2cnc(Nc3ccc(N4CCC5(CNC5)C4)c(OC)c3)nc2n1-c1ccc(=O)n(C(C)C)n1 [Compound 171]
- IC50 [1]: ≤ 1 µM
- IC50 [2]: ≤ 0.03 µM

Compound: C=CCn1c(=O)c2cnc(Nc3ccc4c(c3)CN(C)C4)nc2n1-c1ccc(=O)n(C(C)C)n1 [Compound 222]
- IC50 [1]: ≤ 1 µM
- IC50 [2]: ≤ 0.03 µM

Compound: C=CCn1c(=O)c2cnc(Nc3ccc(N4CCN(C)CC4)cc3)nc2n1-c1ccc(=O)n(C(C)(C)C)c1 [Compound 21]
- IC50 [1]: ≤ 1 µM
- IC50 [2]: ≤ 0.03 µM

Compound: C=CCn1c(=O)c2cnc(Nc3cccc(N4CCN(C)CC4)c3)nc2n1-c1ccc(=O)n(C(C)C)n1 [Compound 68]
- IC50 [1]: ≤ 1 µM
- IC50 [2]: ≤ 0.03 µM

Compound: Cc1cc(Nc2ncc3c(=O)n(C4CC4)n(-c4ccc(=O)n(C(C)(C)C)n4)c3n2)ccc1N1CCN(C)CC1 [Compound 293]
- IC50 [1]: ≤ 1 µM
- IC50 [2]: ≤ 0.03 µM

Compound: C=CCn1c(=O)c2cnc(Nc3ccc(N4CCC5(CCN(C)CC5)CC4)cc3)nc2n1-c1ccc(=O)n(C(C)C)n1 [Compound 184]
- IC50 [1]: ≤ 1 µM
- IC50 [2]: ≤ 0.03 µM

Compound: CC(C)n1cc(-n2c3nc(Nc4ccc5c(c4)CN(C)CC54CC4)ncc3c(=O)n2C(C)C)ccc1=O [Compound 306]
- IC50 [1]: ≤ 1 µM
- IC50 [2]: ≤ 0.03 µM

Compound: C=CCn1c(=O)c2cnc(Nc3ccc(N4CC5(CCNCC5)C4)c(OC)c3)nc2n1-c1ccc(=O)n(C(C)C)n1 [Compound 168]
- IC50 [1]: 1 to 3 µM
- IC50 [2]: 0.03 to 0.1 µM

Compound: C=CCn1c(=O)c2cnc(Nc3ccc(N4CCNCC4)cc3)nc2n1-c1ccc(=O)n(C(C)C)n1 [Compound 31]
- IC50 [1]: ≤ 1 µM
- IC50 [2]: ≤ 0.03 µM

Compound: C=CCn1c(=O)c2cnc(Nc3ccc(N4CC5(CCCCN5C)C4)c(C)c3)nc2n1-c1ccc(=O)n(C(C)C)n1 [Compound 189]
- IC50 [1]: ≤ 1 µM
- IC50 [2]: 0.03 to 0.1 µM

Compound: C=CCn1c(=O)c2cnc(Nc3ccc(C4CCN(C)CC4)c(C)c3)nc2n1-c1cc(F)c(=O)n(C(C)C)c1 [Compound 313]
- IC50 [1]: ≤ 1 µM
- IC50 [2]: ≤ 0.03 µM

Compound: C=CCn1c(=O)c2cnc(Nc3ccc(N4CC(N5CCCC5)C4)c(C)c3)nc2n1-c1ccc(=O)n(C(C)C)n1 [Compound 84]
- IC50 [1]: ≤ 1 µM
- IC50 [2]: ≤ 0.03 µM

Compound: Cc1cc(Nc2ncc3c(=O)n(C(C)C)n(-c4ccc(=O)n(C(C)(C)C)c4)c3n2)ccc1N1CCN(C)CC1 [Compound 335]
- IC50 [1]: ≤ 1 µM
- IC50 [2]: ≤ 0.03 µM

Compound: C=CCn1c(=O)c2cnc(Nc3ccc4c(c3)CCN(C)C4)nc2n1-c1ccc(=O)n(C(C)C)n1 [Compound 229]
- IC50 [1]: ≤ 1 µM
- IC50 [2]: ≤ 0.03 µM

Compound: CC(C)n1cc(-n2c3nc(Nc4ccc(N5CCN(C)CC5)cc4)ncc3c(=O)n2C(C)C)ccc1=O [Compound 303]
- IC50 [1]: ≤ 1 µM
- IC50 [2]: ≤ 0.03 µM

Compound: C=CCn1c(=O)c2cnc(Nc3ccc(N4CCN(CC(F)F)CC4)cc3)nc2n1-c1ccc(=O)n(C(C)C)n1 [Compound 38]
- IC50 [1]: ≤ 1 µM
- IC50 [2]: ≤ 0.03 µM

Compound: C=CCn1c(=O)c2cnc(Nc3ccc4c(c3)CN(C)CC4)nc2n1-c1ccc(=O)n(C(C)C)n1 [Compound 226]
- IC50 [1]: ≤ 1 µM
- IC50 [2]: ≤ 0.03 µM

Compound: C=CCn1c(=O)c2cnc(Nc3ccc(N4CCN(C)CC4)c(C)c3)nc2n1-c1cc(F)c(=O)n(C(C)C)c1 [Compound 312]
- IC50 [1]: ≤ 1 µM
- IC50 [2]: ≤ 0.03 µM

Compound: C=CCn1c(=O)c2cnc(Nc3ccc4c(c3)CN(C)CC43CC3)nc2n1-c1ccc(=O)n(C(C)(C)C)n1 [Compound 283]
- IC50 [1]: ≤ 1 µM
- IC50 [2]: ≤ 0.03 µM

Compound: C=CCn1c(=O)c2cnc(Nc3ccc(N4C[C@H](C)NC[C@H]4C)cc3)nc2n1-c1ccc(=O)n(C(C)C)n1 [Compound 124]
- IC50 [1]: ≤ 1 µM
- IC50 [2]: ≤ 0.03 µM

Compound: C=CCn1c(=O)c2cnc(Nc3ccc(N4CCN(C)CC4)cc3)nc2n1-c1ccc(=O)n(C2CC2)n1 [Compound 11]
- IC50 [1]: ≤ 1 µM
- IC50 [2]: ≤ 0.03 µM

Compound: C=CCn1c(=O)c2cnc(Nc3cc(C)c(N4CCN(C)CC4)c(Cl)c3)nc2n1-c1ccc(=O)n(C(C)C)n1 [Compound 58]
- IC50 [1]: ≤ 1 µM
- IC50 [2]: ≤ 0.03 µM
